Converted amounts (≈) assume the structure as drawn. The source made the active and inactive calls. The rule behind the calls is not given here.
Legend:
Mucor fuscus = experiment: Antifungal activity against Mucor fuscus after 3 to 4 days by serial dilution method; format: functional; details: for MIC: Mucor fuscus
Candida albicans = experiment: Antifungal activity against Candida albicans after 3 to 4 days by serial dilution method; format: functional; details: for MIC: Candida albicans
Aspergillus niger [1] = experiment: Induction of Aspergillus niger DNA cleavage at 50 ug after 2 hr by agarose gel electrophoresis
Klebsiella pneumoniae = experiment: Antibacterial activity against Klebsiella pneumoniae MTCC 3384 after 24 hr by disk diffusion method; format: functional; details: for MIC: Klebsiella pneumoniae, MTCC 3384, 24 h
Aspergillus fumigatus = experiment: Antifungal activity against Aspergillus fumigatus after 3 to 4 days by serial dilution method; format: functional; details: for MIC: Aspergillus fumigatus
Escherichia coli [2] = experiment: Induction of Escherichia coli MTCC 1089 DNA cleavage at 50 ug after 2 hr by agarose gel electrophoresis
Fusarium oxysporum = experiment: Antifungal activity against Fusarium oxysporum after 3 to 4 days by serial dilution method; format: functional; details: for MIC: Fusarium oxysporum
Pseudomonas aeruginosa = experiment: Antibacterial activity against Pseudomonas aeruginosa MTCC 1034 after 24 hr by disk diffusion method; format: functional; details: for MIC: Pseudomonas aeruginosa, MTCC 1034, 24 h
Staphylococcus aureus [3] = experiment: Induction of Staphylococcus aureus MTCC 3160 DNA cleavage at 50 ug after 2 hr by agarose gel electrophoresis
Staphylococcus aureus [4] = experiment: Antibacterial activity against Staphylococcus aureus MTCC 3160 after 24 hr by disk diffusion method; format: functional; details: for MIC: Staphylococcus aureus, MTCC 3160, 24 h
Escherichia coli [5] = experiment: Induction of Escherichia coli MTCC 1089 DNA cleavage at 25 ug after 2 hr by agarose gel electrophoresis
Bacillus subtilis = experiment: Antibacterial activity against Bacillus subtilis MTCC 297 after 24 hr by disk diffusion method; format: functional; details: for MIC: Bacillus subtilis, MTCC 297, 24 h
Penicillium chrysogenum = experiment: Antifungal activity against Penicillium chrysogenum after 3 to 4 days by serial dilution method; format: functional; details: for MIC: Penicillium chrysogenum
Enterococcus faecalis = experiment: Antibacterial activity against Enterococcus faecalis MTCC 3382 after 24 hr by disk diffusion method; format: functional; details: for MIC: Enterococcus faecalis, MTCC 3382, 24 h
Escherichia coli [6] = experiment: Antibacterial activity against Escherichia coli MTCC 1089 after 24 hr by disk diffusion method; format: functional; details: for MIC: Escherichia coli, MTCC 1089, 24 h
Aspergillus niger [7] = experiment: Antifungal activity against Aspergillus niger after 3 to 4 days by serial dilution method; format: functional; details: for MIC: Aspergillus niger
Aspergillus niger [8] = experiment: Induction of Aspergillus niger DNA cleavage at 25 ug after 2 hr by agarose gel electrophoresis
Staphylococcus aureus [9] = experiment: Induction of Staphylococcus aureus MTCC 3160 DNA cleavage at 25 ug after 2 hr by agarose gel electrophoresis

Compound | inhibition zone (IZ) (Mucor fuscus) | MIC (Mucor fuscus) | inhibition zone (IZ) (Candida albicans) | MIC (Candida albicans) | Activity (Aspergillus niger [1]) | inhibition zone (IZ) (Klebsiella pneumoniae) | MIC (Klebsiella pneumoniae) | inhibition zone (IZ) (Aspergillus fumigatus) | MIC (Aspergillus fumigatus) | Activity (Escherichia coli [2]) | inhibition zone (IZ) (Fusarium oxysporum) | MIC (Fusarium oxysporum) | inhibition zone (IZ) (Pseudomonas aeruginosa) | MIC (Pseudomonas aeruginosa) | Activity (Staphylococcus aureus [3]) | inhibition zone (IZ) (Staphylococcus aureus [4]) | MIC (Staphylococcus aureus [4]) | inhibition zone (IZ) (Bacillus subtilis) | MIC (Bacillus subtilis) | inhibition zone (IZ) (Penicillium chrysogenum) | other results
COc1ccc2oc(=O)cc(COc3cccc(NC(C)=O)c3)c2c1 | 21 mm | 6.25 µg/mL (≈ 18.4 µM) | 19 mm | 6.25 µg/mL (≈ 18.4 µM) | Active | 21 mm | 6.25 µg/mL (≈ 18.4 µM) | 21 mm | 6.25 µg/mL (≈ 18.4 µM) | Active | 16 mm | 12.5 µg/mL (≈ 36.8 µM) | 25 mm | 6.25 µg/mL (≈ 18.4 µM) | Active | 19 mm | 6.25 µg/mL (≈ 18.4 µM) | 19 mm | 6.25 µg/mL (≈ 18.4 µM) | 20 mm | Activity (Escherichia coli [5]): Active; MIC (Penicillium chrysogenum): 6.25 µg/mL (≈ 18.4 µM); inhibition zone (IZ) (Enterococcus faecalis): 20 mm; MIC (Enterococcus faecalis): 6.25 µg/mL (≈ 18.4 µM); inhibition zone (IZ) (Escherichia coli [6]): 17 mm; MIC (Escherichia coli [6]): 12.5 µg/mL (≈ 36.8 µM); inhibition zone (IZ) (Aspergillus niger [7]): 21 mm; MIC (Aspergillus niger [7]): 6.25 µg/mL (≈ 18.4 µM)
O=c1cc(COc2cccc(O)c2)c2cc(Cl)ccc2o1 | 21 mm | 6.25 µg/mL (≈ 20.6 µM) | 20 mm | 6.25 µg/mL (≈ 20.6 µM) | Active | 19 mm | 6.25 µg/mL (≈ 20.6 µM) | 21 mm | 6.25 µg/mL (≈ 20.6 µM) | Active | 17 mm | 12.5 µg/mL (≈ 41.3 µM) | 24 mm | 6.25 µg/mL (≈ 20.6 µM) | Active | 21 mm | 6.25 µg/mL (≈ 20.6 µM) | 20 mm | 6.25 µg/mL (≈ 20.6 µM) | 22 mm | Activity (Aspergillus niger [8]): Active; Activity (Staphylococcus aureus [9]): Active; MIC (Penicillium chrysogenum): 6.25 µg/mL (≈ 20.6 µM); inhibition zone (IZ) (Enterococcus faecalis): 22 mm; MIC (Enterococcus faecalis): 6.25 µg/mL (≈ 20.6 µM); inhibition zone (IZ) (Escherichia coli [6]): 17 mm; MIC (Escherichia coli [6]): 12.5 µg/mL (≈ 41.3 µM); inhibition zone (IZ) (Aspergillus niger [7]): 24 mm; MIC (Aspergillus niger [7]): 6.25 µg/mL (≈ 20.6 µM)
O=c1cc(COc2cccc(OCc3cc(=O)oc4ccc(Cl)cc34)c2)c2cc(Cl)ccc2o1 | 22 mm | 6.25 µg/mL (≈ 12.6 µM) | 19 mm | 6.25 µg/mL (≈ 12.6 µM) | Active | 18 mm | 6.25 µg/mL (≈ 12.6 µM) | 22 mm | 6.25 µg/mL (≈ 12.6 µM) | Active | 16 mm | 12.5 µg/mL (≈ 25.2 µM) | 22 mm | 6.25 µg/mL (≈ 12.6 µM) | Active | 20 mm | 6.25 µg/mL (≈ 12.6 µM) | 19 mm | 6.25 µg/mL (≈ 12.6 µM) | 20 mm | Activity (Aspergillus niger [8]): Active; MIC (Penicillium chrysogenum): 6.25 µg/mL (≈ 12.6 µM); inhibition zone (IZ) (Enterococcus faecalis): 23 mm; MIC (Enterococcus faecalis): 6.25 µg/mL (≈ 12.6 µM); inhibition zone (IZ) (Escherichia coli [6]): 15 mm; MIC (Escherichia coli [6]): 12.5 µg/mL (≈ 25.2 µM); inhibition zone (IZ) (Aspergillus niger [7]): 24 mm; MIC (Aspergillus niger [7]): 6.25 µg/mL (≈ 12.6 µM)

— ChEMBL document CHEMBL3046568, “Synthesis, antimicrobial and DNA cleavage studies of some 4-aryloxymethylcoumarins obtained by reaction of 4-bromomethylcoumarins with bidentate nucleophiles” (2012)
